According to a melting point compilation (Tetko et al.):

SMILES	melting point [°C]
COC(=O)c1n[nH]c2ccccc12	159 to 161
Cc1ccncc1-n1ccnc1	64 to 66
O=C1C=CC=NC1=C(O)Nc1cnccn1	156 to 158
Cc1c[nH]c(=O)n1-c1ccc(Cl)cc1	185 to 187
CNS(=O)(=O)c1ccc(Cl)c(C(=O)O)c1Cl	136 to 138
COc1nc(N)n[nH]1	165 to 167
COc1cc(F)cc(F)c1S(=O)(=O)Cl	75 to 77
CC(=O)N(c1ccc(F)cc1)c1nc(C=O)cs1	216 to 218
CN(C)C(=O)c1ccc(Cl)c(NC(=O)OCC(F)(F)F)c1	96 to 98
Nc1cc(Cl)c(I)cn1	99 to 101
COc1ccc(C(=O)CCl)cc1Br	85 to 87
Nc1nc(-c2ccsc2)ns1	172 to 174
CC(CSc1ccccc1)C(=O)O (configuration not stated)	40 to 42
O=C(O)c1cccc(S(=O)(=O)N2CCN(c3ccc(F)cc3)CC2)c1	129 to 131
COc1ccc(C(=O)Nc2ncc(C)s2)cc1N	225 to 227
CC1(C)Cc2cccc(OCC(=O)O)c2O1	111 to 113
CS(=O)(=O)Nc1ccc(O)c(C(=O)O)c1	228 to 230
Cc1csc(-c2cccc(C(=O)O)c2)n1	192 to 194
CS(=O)(=O)N1CCCC(CCl)C1 (configuration not stated)	64 to 66
Nc1ccc(OCc2ccccn2)c(F)c1	67 to 69
O=c1[nH]cnc2ccsc12	219 to 221
CC(C)(C)OC(=O)Nc1cc2c(cc1N)OCCO2	119 to 121
Nc1cccc(C(=O)N2CCCC(CO)C2)c1 (configuration not stated)	115 to 117
NC(=O)c1cc(Oc2cccc(O)c2)ccn1	124 to 126

SMILES	melting point [°C]
Nc1ccc(N2C(=O)CCC2=O)cc1	239 to 241
N#Cc1ccc(N=C=S)cc1Cl	75 to 77
CCNCc1cccc(NC(=O)c2cc(Cl)c[nH]2)c1	126 to 128
COC(=O)c1ccc(Br)c(C)c1N	79 to 81
O=C(O)C1(c2ccccc2)CCOCC1	128 to 130
CCN(CC)S(=O)(=O)c1cc(N)ccc1Cl	95 to 99
NS(=O)(=O)N1CCCCC1	121 to 123
Cc1oncc1C(=O)Nc1cccc(C(=O)O)c1	245 to 247
O=C(CBr)c1ccc2c(c1)CCO2	72 to 74
Nc1ccc(CN2CCOC2=O)cc1	99 to 101
COC(=O)Cc1cc(=O)n(C(C)(C)C)[nH]1	110 to 112
Nc1nnc(-c2cccc3ccccc23)[nH]1	219 to 221
O=C(O)c1cccc(-c2ncn[nH]2)c1	239 to 241
NC(=O)COc1ccc(Cl)cc1S(=O)(=O)Cl	143 to 145
O=Cc1sc(=O)[nH]c1Cl	199 to 201
O=C(Cc1ccccn1)c1ccc(Cl)cc1	99 to 101
CCN(c1ccccc1)S(=O)(=O)c1cc(C(=O)O)ccc1C	160 to 162
CC(=O)NCc1ccc(C(=O)CCl)o1	125 to 127
O=S(=O)(c1ccc(F)cc1)C(F)F	51 to 53
COc1ccc(CN2C(=O)NC(=O)C2=O)cc1	168 to 170
Cc1csc(Sc2ccc(C(=O)O)cc2[N+](=O)[O-])n1	207 to 210
COc1ccc(Cl)c(S(N)(=O)=O)c1	129 to 131
O=C(O)c1cc2cc(F)ccc2oc1=O	185 to 187
CC(C)(C)OC(=O)NC(COS(C)(=O)=O)COS(C)(=O)=O	96 to 98

SMILES	melting point [°C]
CNS(=O)(=O)c1cc(C(=O)O)c(C)o1	154 to 156
CC(NCc1ccc(F)cc1)C(=O)O (configuration not stated)	283 to 285
NS(=O)(=O)Cc1ccc(Br)cc1	191 to 193
O=S(=O)(Cl)CCNS(=O)(=O)c1ccccc1	96 to 98
ClCc1cnoc1-c1ccc(Cl)cc1	78 to 80
COc1ccc(-c2cc3ncnc(Cl)c3s2)cc1	179 to 181
CC1(c2cccc([N+](=O)[O-])c2)NC(=O)NC1=O (configuration not stated)	178 to 180
CN(CCOc1ccccc1F)C(=O)CCl	68 to 70
O=C(O)[C@@H](Cl)c1ccccc1	56 to 58
CC(C)Oc1ccc(C(O)CN2CCN(C)CC2)cc1 (configuration not stated)	103 to 105
CCN(CC)S(=O)(=O)c1ccc(Cl)c(N)c1	84 to 88
COC(=O)c1c(NC(=O)CCl)sc2c1CCC2	98 to 100
O=c1c(-c2ccccc2)coc2cc(O)ccc12	201 to 203
COC(=O)c1ccc(CBr)cc1OC	44 to 46
Cc1ccc(N)cc1C(=O)N(C)C	114 to 116
Cc1cccc(C(N)CC(=O)O)c1C (configuration not stated)	211 to 213
CCn1cc(C(F)(F)C(=O)O)cn1	99 to 101
Nc1cnn(-c2ccccc2)c1	95 to 97
CC1NCCn2c(C(=O)NC3CC3)ccc21 (configuration not stated)	128 to 130
CC(C)(C)n1c(N)nc2ccccc21	158 to 160
COc1ccccc1-c1ccccc1C(=O)O	149 to 151
NNC(=O)C1CCC1	91 to 93
NS(=O)(=O)c1ccc(C(=O)NCC(=O)O)cc1	192 to 194
CCc1ncncc1C(=O)O	155 to 157
